Consider nine molecules from EP1377579B1 (Aventis Pharmaceuticals Inc., priority 2000, dated 2002).

The target of one experiment is cdk4/cyclin D1 (Homo sapiens, UniProt P11802). In words: Cyclin-dependent kinase assay, cdk4/cyclin D1. The format is biochemical. To be noted: cyclin D1/cdk4; GST-pRb substrate, 10 µM ATP.
In the next experiment the test system is MDA-MB-435. In words: In vitro proliferation assay (MTT), MDA-MB-435. The format is cell-based, human. The settings on record: Homo sapiens, MDA-MB-435, MTT assay; value (SD, n) where given; read-out: MB-435 Breast (IC50 µM). In short, it runs like this:
(§1)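 IC50 values come from absorbance at 570 nm after MTT staining of cells grown with compound for 3 days. Seeding density was 1000 to 2500 cells/well, depending on the line.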
On the technique in general: Tetrazolium assays rely on reduction of a dye to a coloured formazan, in cell work by metabolically active cells.

The next experiment deals with HL-60. In words: In vitro proliferation assay (MTT), HL-60. It counts as cell-based. To be noted: Homo sapiens, HL-60; MTT assay; value (SD, n) where given; read-out: HL-60 Leuk. (IC50 µM). In short, it runs like this: (§2)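 Tetrazolium (MTT) proliferation test following a 3-day treatment with compound. Read-out is optical density at 570 nm after DMSO solubilization.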

In another experiment the test system is Jurkat. Nature of the experiment: In vitro proliferation assay (MTT), Jurkat. The settings on record: Homo sapiens, MTT assay, value (SD, n) where given, read-out: Jurkat Leuk. (IC50 µM). The format is cell-based. In short, it runs like this:
as §2

A further experiment has as its system PC-3. In words: In vitro proliferation assay (MTT), PC-3. It counts as cell-based, human. The settings on record: Homo sapiens, PC-3, MTT assay; value (SD, n) where given; read-out: PC-3 Prostate (IC50 µM). In short, it runs like this:
as §1

Experiment [1] relates to PC-3 Human Prostate Tumors. Nature of the experiment: PC-3 human prostate tumor xenograft in nude mice. It counts as in vivo. The settings on record: Table 5. As for the experimental part:
(§3) Antitumor efficacy is assessed using two subcutaneous human tumor xenograft models. The studies are performed using conventional assay techniques. Briefly, HL-60 (leukemia, 5 x10^5 cells) and PC-3 (prostate, 5 x 10^6 cells) tumor cells are injected subcuateously into nude mice (Crl-CD1-Br-nu, Charles River Laboratory, Wilmington, MA). Dosing with compounds began when tumors reached 50 to 100 mm^3. The dose route/schedule for the test compounds is ip/qld (5x/wk). The test doses are set based on the maximum tolerated dose (MTD). […] The test doses for the efficacy studies are set at 1/3rd the MTD (low dose) and the MTD (high dose). The results are shown in Tables 4 and 5 (HL-60, leukemia) (PC-3, prostate cancer). The length of the treatment phase is dependent on the tumor growth rate for the two models. This treatment phase is typically about 3 weeks for the HL-60 model and about 5 weeks for the PC-3 model. […] Dosing with flavopiridol is for the same time frame as for the experimental compounds in both xenograft models. Tumor volume (twice weekly) and body weights (once weekly) are monitored throughout the course of the treatment phase of the experiment. Tumor sizes are measured by external caliper measurements of protruding tumor. Volumes are calculated using the following formula: volume =½ (a x b2), where b is the smaller of two perpendicular diameters.

In the next experiment the test system is HL-60 Human Leukemia. Nature of the experiment: HL-60 human leukemia xenograft in nude mice. The format is in vivo. The settings on record: Table 5. The protocol: as §3
(In general: Xenograft models place foreign cells or tissue in a host animal.)

Another experiment deals with cdk1/cyclin B (Homo sapiens, UniProt P06493). In words: Cyclin-dependent kinase assay, cdk1/cyclin B. The settings on record: CDK1 IC50, nM, Histone H1, 10 µM ATP.
cdk1/cyclin B, sequence (P06493 whole entry): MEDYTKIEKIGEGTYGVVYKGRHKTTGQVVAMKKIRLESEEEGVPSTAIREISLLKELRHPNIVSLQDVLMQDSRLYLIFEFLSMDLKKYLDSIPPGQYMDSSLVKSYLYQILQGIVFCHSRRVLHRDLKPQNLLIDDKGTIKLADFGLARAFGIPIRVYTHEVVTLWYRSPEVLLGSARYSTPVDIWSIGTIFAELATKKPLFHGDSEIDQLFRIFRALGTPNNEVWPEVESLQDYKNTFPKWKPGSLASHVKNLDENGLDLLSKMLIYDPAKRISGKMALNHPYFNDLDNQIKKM
cdk1/cyclin B, sequence (P14635 whole entry partner): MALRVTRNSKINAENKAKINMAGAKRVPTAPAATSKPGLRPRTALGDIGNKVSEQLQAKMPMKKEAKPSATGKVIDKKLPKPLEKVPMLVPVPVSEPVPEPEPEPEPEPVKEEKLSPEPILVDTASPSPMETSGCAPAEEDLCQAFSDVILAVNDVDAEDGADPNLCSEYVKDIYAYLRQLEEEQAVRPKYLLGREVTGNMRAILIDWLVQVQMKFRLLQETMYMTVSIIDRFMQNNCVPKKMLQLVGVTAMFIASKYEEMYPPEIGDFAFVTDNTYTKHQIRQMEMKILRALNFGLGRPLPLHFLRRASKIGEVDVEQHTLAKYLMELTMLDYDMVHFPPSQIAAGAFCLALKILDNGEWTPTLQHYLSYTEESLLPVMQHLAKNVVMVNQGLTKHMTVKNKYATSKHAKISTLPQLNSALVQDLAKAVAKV
A further experiment concerns the target cdk2/cyclin E (Homo sapiens, UniProt P24941). In words: Cyclin-dependent kinase assay, cdk2/cyclin E. To be noted: CDK2 IC50, nM, GST-pRb substrate, 10 µM ATP.
The test system of the next experiment is NCI-H460. In words: In vitro proliferation assay (MTT), NCI-H460. The format is cell-based. To be noted: Homo sapiens, NCI-H460; MTT assay; value (SD, n) where given; read-out: H-460 Lung (IC50 µM). In short, it runs like this:
as §2

The test system of the next experiment is Colo-205. Nature of the experiment: In vitro proliferation assay (MTT), Colo-205. It counts as cell-based. To be noted: Homo sapiens, COLO 205; MTT assay; value (SD, n) where given; read-out: Colo-205 Colon (IC50 µM). In short, it runs like this: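 Colo-205 cells were seeded at 1000–2500 cells/well and allowed to attach overnight, then exposed to compound for 3 days. Viable cells were measured by MTT reduction (2–4 h, 37 °C), with DMSO-solubilised dye read at 570 nm. IC50 was derived from concentration–response data.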

Counter-ions that a name gives are not always drawn.

cdk4/cyclin D1, sequence (P11802 whole entry): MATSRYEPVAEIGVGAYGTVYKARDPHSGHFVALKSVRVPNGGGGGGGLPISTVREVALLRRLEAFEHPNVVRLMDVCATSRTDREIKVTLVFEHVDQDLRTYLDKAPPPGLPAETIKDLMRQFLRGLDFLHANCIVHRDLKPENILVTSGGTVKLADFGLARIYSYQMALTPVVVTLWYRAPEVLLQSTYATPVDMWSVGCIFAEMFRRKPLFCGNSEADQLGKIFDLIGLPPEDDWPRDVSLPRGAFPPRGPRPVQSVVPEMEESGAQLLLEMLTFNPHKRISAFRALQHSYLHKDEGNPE
cdk4/cyclin D1, sequence (P24385 whole entry partner): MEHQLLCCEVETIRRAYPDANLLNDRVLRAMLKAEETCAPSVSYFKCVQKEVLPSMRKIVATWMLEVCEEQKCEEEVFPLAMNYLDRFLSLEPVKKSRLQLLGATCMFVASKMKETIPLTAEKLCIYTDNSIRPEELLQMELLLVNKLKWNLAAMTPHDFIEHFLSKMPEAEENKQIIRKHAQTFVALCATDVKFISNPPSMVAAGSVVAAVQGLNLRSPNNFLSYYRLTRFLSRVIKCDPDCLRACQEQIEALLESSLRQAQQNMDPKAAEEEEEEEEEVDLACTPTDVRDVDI

In the case of `N[C@H]1CC[C@H](Nc2nc(NC3CCN(C(=O)c4cccc(C(F)(F)F)c4)CC3)c3ncn(C4CCCC4)c3n2)CC1` [compound 3, dihydrochloride], the concentration for half-maximal inhibition (IC50) (usually the midpoint of a concentration-inhibition curve) turned out to be 1120 nM against cdk4/cyclin D1; 0.25 µM with MDA-MB-435; 0.13 µM with HL-60; 0.22 µM in the experiment on Jurkat; 0.66 µM in the experiment with PC-3; 55 nM against cdk1/cyclin B. The molecule also returned an IC50 against cdk2/cyclin E of 48 nM. Further, the entries for the “PC-3 Mean Vol. ± SD” value in [1] (dose 1 mg/kg ip) and in [1] (dose 3 mg/kg ip) were 671 ± 672 and 785 ± 473, respectively. In addition, the “HL60 Mean Vol. ± SD” value worked out at 6370 ± 4655 in the experiment with HL-60 Human Leukemia (dose 1 mg/kg ip) and 6092 ± 4278 with HL-60 Human Leukemia (dose 3 mg/kg ip).

With `CCOc1ccc(NC(=O)N2CCC(Nc3nc(N[C@H]4CC[C@H](N)CC4)nc4c3ncn4C3CCCC3)CC2)cc1` [compound 191, trans-4-[2-(4-Amino-cyclohexylamino)-9-cyclopentyl-9H-purin-6-ylamino]-piperidine-1-carboxylic acid (4-ethoxy-phenyl)-amide dihydrochloride], the IC50 was 297 nM at cdk4/cyclin D1; 0.25 µM in the experiment on MDA-MB-435; 0.41 µM in the experiment on NCI-H460; under 0.02 µM in the experiment with HL-60; 0.36 µM with Jurkat; 0.24 µM with PC-3. Besides, the IC50 in the experiment with Colo-205 was 0.07 µM; against cdk1/cyclin B it was 23 nM; against cdk2/cyclin E, 36 nM.

Regarding `COC(=O)c1ccccc1NC(=O)N1CCC(Nc2nc(N[C@H]3CC[C@H](N)CC3)nc3c2ncn3C2CCCC2)CC1` [compound 193, trans-2-[(1-{4-[2-(4-Amino-cyclohexylamino)-9-cyclopentyl-9H-purin-6-ylamino]-piperidin-1-yl}-methanoyl)-amino]-benzoic acid methyl ester dihydrochloride], the IC50 at cdk4/cyclin D1 came to 507 nM; in the experiment on MDA-MB-435, 0.17 µM; with NCI-H460 it was 0.13 µM; with HL-60, 0.03 µM; in the experiment on Jurkat, 0.26 µM; in the experiment with PC-3 it was 0.18 µM. The values for the IC50 in the experiment on Colo-205, against cdk1/cyclin B and at cdk2/cyclin E were 0.18 µM, 26 nM and 8 nM, respectively.

For `CCOC(=O)c1ccccc1NC(=O)N1CCC(Nc2nc(N[C@H]3CC[C@H](N)CC3)nc3c2ncn3C2CCCC2)CC1` [compound 199, trans-2-[(1-{4-[2-(4-Amino-cyclohexylamino)-9-cyclopentyl-9H-purin-6-ylamino]-piperidin-1-yl}-methanoyl)-amino]-benzoic acid ethyl ester dihydrochloride], the IC50 turned out to be 670 nM at cdk4/cyclin D1; 0.26 µM with MDA-MB-435; 0.18 µM in the experiment on NCI-H460; 0.06 µM in the experiment with HL-60; 0.34 µM with Jurkat; 0.26 µM in the experiment on PC-3. The IC50 amounted to 0.06 µM with Colo-205, 70 nM against cdk1/cyclin B and 20 nM against cdk2/cyclin E.

Turning to `N[C@H]1CC[C@H](Nc2nc(NC3CCN(C(=O)Nc4cc(C(F)(F)F)ccc4F)CC3)c3ncn(C4CCCC4)c3n2)CC1` [compound 200, trans-4-[2-(4-Amino-cyclohexylamino)-9-cyclopentyl-9H-purin-6-ylamino]-piperidine-1-carboxylic acid (2-fluoro-5-trifluoromethyl-phenyl)-amide dihydrochloride], the half-inhibitory concentration (IC50) on cdk4/cyclin D1 was 597 nM; with MDA-MB-435, 0.09 µM; in the experiment on NCI-H460, 0.19 µM; in the experiment with HL-60, under 0.02 µM; in the experiment with Jurkat it was 0.21 µM; in the experiment with PC-3, 0.16 µM. In addition, the IC50 worked out at 0.06 µM in the experiment with Colo-205, 10 nM against cdk1/cyclin B and 23 nM at cdk2/cyclin E.

With `N[C@H]1CC[C@H](Nc2nc(NC3CCN(C(=O)Nc4ccc(F)cc4C(F)(F)F)CC3)c3ncn(C4CCCC4)c3n2)CC1` [compound 202, trans-4-[2-(4-Amino-cyclohexylamino)-9-cyclopentyl-9H-purin-6-ylamino]-piperidine-1-carboxylic acid (4-fluoro-2-trifluoromethyl-phenyl)-amide dihydrochloride], the concentration for half-maximal inhibition (IC50) against cdk4/cyclin D1 is 673 nM; in the experiment on MDA-MB-435, 0.22 µM; in the experiment on NCI-H460, 0.33 µM; with HL-60, under 0.02 µM; in the experiment on Jurkat, 0.53 µM; in the experiment with PC-3 it was 0.23 µM. Further, the values for the IC50 in the experiment with Colo-205, against cdk1/cyclin B and on cdk2/cyclin E were 0.2 µM, 137 nM and 48 nM, respectively.

Consider `N[C@H]1CC[C@H](Nc2nc(NC3CCN(C(=O)Nc4ccc(F)c(C(F)(F)F)c4)CC3)c3ncn(C4CCCC4)c3n2)CC1` [compound 203, trans-4-[2-(4-Amino-cyclohexylamino)-9-cyclopentyl-9H-purin-6-ylamino]-piperidine-1-carboxylic acid (4-fluoro-3-trifluoromethyl-phenyl)-amide dihydrochloride], for which the 50% inhibitory concentration (IC50) at cdk4/cyclin D1 was 733 nM; in the experiment with MDA-MB-435 it was 0.22 µM; in the experiment with NCI-H460, 0.54 µM; in the experiment on HL-60, under 0.02 µM; with Jurkat, 0.5 µM; in the experiment with PC-3, 0.3 µM. The 50% inhibitory concentration (IC50) in the experiment with Colo-205 was 0.17 µM; against cdk1/cyclin B it was 10 nM; against cdk2/cyclin E, 51 nM.

`N[C@H]1CC[C@H](Nc2nc(NC3CCN(C(=O)Nc4ccccc4F)CC3)c3ncn(C4CCCC4)c3n2)CC1` [compound 207, trans-4-[2-(4-Amino-cyclohexylamino)-9-cyclopentyl-9H-purin-6-ylamino]-piperidine-1-carboxylic acid (2-fluoro-phenyl)-amide dihydrochloride]: the IC50 stood at 44 nM at cdk4/cyclin D1; 0.11 µM in the experiment with MDA-MB-435; 0.14 µM in the experiment on NCI-H460; 0.02 µM with HL-60; 0.13 µM with Jurkat; 0.13 µM in the experiment with PC-3. Further, the IC50 with Colo-205 amounted to 0.03 µM; on cdk1/cyclin B, 50 nM; against cdk2/cyclin E, 46 nM.

With `N[C@H]1CC[C@H](Nc2nc(NC3CCN(C(=O)Nc4ccc(Cl)c(Cl)c4)CC3)c3ncn(C4CCCC4)c3n2)CC1` [compound 209, trans-4-[2-(4-Amino-cyclohexylamino)-9-cyclopentyl-9H-purin-6-ylamino]-piperidine-1-carboxylic acid (3,4-dichloro-phenyl)-amide dihydrochloride], the half-maximal inhibitory concentration (IC50) on cdk4/cyclin D1 was 50 nM; in the experiment on MDA-MB-435, 0.17 µM; in the experiment with NCI-H460, 0.29 µM; with HL-60, under 0.02 µM; with Jurkat, 0.13 µM; in the experiment on PC-3 it was 0.26 µM. Besides, the concentration for half-maximal inhibition (IC50) with Colo-205 worked out at 0.05 µM; on cdk1/cyclin B, 13 nM; against cdk2/cyclin E it was 34 nM.
